Test results reported in paper PMC5585294, “A potent series targeting the malarial cGMP-dependent protein kinase clears infection and blocks transmission” (Nature Communications, 2017).

Legend:
[1] = system: P. falciparum (NF54) gametocytes; assay: Standard membrane feeding assay (SMFA), gametocytes fed to Anopheles stephensi; type: cell-based, Plasmodium falciparum; details: Plasmodium falciparum, NF54; gametocytes pre-incubated 24 h, oocysts counted day 7 post-feed; read-out: IC50 for reduction of the intensity of infection (oocysts)
Protocol: Mature P. falciparum (NF54) gametocytes (14 day culture, 0.3–0.5% gametocytes, 2% haematocrit) were obtained from an automated tipper system and incubated with compound for 24 h as previously described. Anopheles stephensi (Sind-Kasur Nijmegen strain[39] were reared at 30 °C and 70–80% humidity, while exposed to a 12/12 h day/night cycle. On the day of feeding, the gametocyte culture was adjusted to 50% hematocrit with human red blood cells and human serum and fed to 3–5 day old mosquitoes using a glass membrane mini-feeder system containing 0.35 ml of the P. falciparum culture/compound mix[40]. Unfed and partially fed mosquitoes were removed after feeding and blood fed females were maintained at 26 °C and 70–80% humidity. Up to 20 surviving mosquitoes were collected on day 7 post-infection and oocysts were visualized using a 1% merchurochrome solution and quantified by microscopy. IC50 values were determined by logistic regression using Maximum Likelihood Estimation to find best fit[41].

[2] = system: panel of 80 human protein kinases; assay: Human kinase panel single point screen; type: biochemical; details: tested at 100 nM
Excerpt: (§1) The results are expressed as % inhibition of kinase activity.
(§2) (1 picture or pasted object on this page, not shown here)

P. chabaudi (AS) = assay: Synchronous P. chabaudi AS model in BALB/c mice; type: in vivo, Plasmodium chabaudi; details: 4 days
Protocol: Similar experiments were performed using P. chabaudi AS (from David Walliker, University of Edinburgh) with the following modifications. To allow dosing to be carried out more conveniently during the day, reversal of the light/dark exposure of mice for 2 weeks prior to the experiment was used to switch schizogony from midnight to noon each day. Mice were dosed at different time points in an attempt to have maximal coverage at the point of schizogony. All animal work protocols carried out at LSHTM were approved and licensed by the United Kingdom Home Office as governed by law under the Animals (Scientific Procedures) Act of 1986, in strict accordance with the Code of Practice Part 1 for the housing and care of animals (21 March 2005), available at http://www.homeoffice.gov.uk/science-research/animal-research/

[3] = Stability in human liver microsomes; details: human, microsomes, 40 min
Protocol: (§3) Compound mlm hlm mLogD PAMPA HepG2 name (%rem) (%rem) (nm/s) (IC50 µM)
(§4) Supplementary Table 2. Compound Properties. MLM, HLM, mLogD and PAMPA . mlm (%rem): % of compound remaining after 30 minutes’ incubation with mouse liver microsomes; hlm (%rem): % of compound remaining after 40 minutes’ incubation with human liver microsomes; mLogD: measured LogD at pH 7.4; PAMPA: parallel artificial membrane permeability assay; HepG2: Cytotoxicity assay using HepG2 cells; n.t.: not tested.

human MLK3 = biological target: T1, human MLK3 (Homo sapiens, UniProt Q16584); assay: Human kinase panel single point screen, MLK3; type: biochemical; details: at 100 nM; highest level of inhibition in the panel
T1 construct: Protein Phosphorylation Unit, Dundee (screening site)
T1 sequence (Q16584 whole entry): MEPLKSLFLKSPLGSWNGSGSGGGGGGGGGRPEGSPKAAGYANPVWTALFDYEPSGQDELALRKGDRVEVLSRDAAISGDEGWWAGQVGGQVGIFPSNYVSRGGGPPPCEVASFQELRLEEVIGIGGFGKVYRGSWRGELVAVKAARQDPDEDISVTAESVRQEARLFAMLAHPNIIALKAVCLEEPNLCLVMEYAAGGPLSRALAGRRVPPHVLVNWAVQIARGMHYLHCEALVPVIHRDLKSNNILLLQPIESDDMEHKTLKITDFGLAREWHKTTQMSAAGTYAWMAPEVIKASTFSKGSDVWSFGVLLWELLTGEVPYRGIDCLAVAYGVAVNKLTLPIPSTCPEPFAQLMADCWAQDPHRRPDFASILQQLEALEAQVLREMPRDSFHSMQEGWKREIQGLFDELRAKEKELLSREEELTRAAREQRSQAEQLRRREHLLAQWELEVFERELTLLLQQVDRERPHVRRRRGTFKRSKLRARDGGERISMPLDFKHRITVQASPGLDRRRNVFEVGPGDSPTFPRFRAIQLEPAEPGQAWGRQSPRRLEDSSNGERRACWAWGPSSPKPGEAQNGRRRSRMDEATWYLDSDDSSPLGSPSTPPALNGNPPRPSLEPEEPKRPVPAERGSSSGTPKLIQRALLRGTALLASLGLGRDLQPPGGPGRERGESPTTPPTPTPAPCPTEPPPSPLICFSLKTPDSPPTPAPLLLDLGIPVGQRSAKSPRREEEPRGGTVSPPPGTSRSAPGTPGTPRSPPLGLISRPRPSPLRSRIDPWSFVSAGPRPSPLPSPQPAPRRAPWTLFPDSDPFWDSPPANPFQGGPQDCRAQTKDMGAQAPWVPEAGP
Excerpt: as §1, §2

[4] = system: P. falciparum strain 3D7A; assay: In vitro parasite reduction rate (PRR) assay; details: 10× EC50
Protocol: The assay used the limiting dilution technique to quantify the number of parasites that remained viable after drug treatment. […] To quantify the number of viable parasites after treatment, threefold serial dilutions were used with the above-mentioned samples after removing the drug. Four independent serial dilutions were performed with each sample to correct experimental variations. The number of viable parasites was determined after 21 and 28 days by counting the number of wells with growth using [^3H]-hypoxanthine incorporation. The number of viable parasites was back-calculated by using the formula X ^n-1 where n is the number of wells able to render growth and X the dilution factor (when n = 0, number of viable parasites is estimated as zero).

in vivo [5] = details: NOD-scid IL-2Rγc-null, mouse, po
Protocol: The blood samples were immediately lysed by mixing with 25 μl of distilled water, frozen on dry ice and stored at −80 °C until analysis. The compounds were extracted from 10 μl of each lysate by liquid–liquid extraction in the MultiScreen Solvinert 0.45 μm Hydrophobic PTFE 96-well plate system (Millipore) and stored frozen at −80 °C until analysis by LC/MS/MS in API4000 (AB Sciex, Framingham, MA). The compound concentration vs. time data were analyzed by non-compartmental analysis using Phoenix® Version 6.3 (Pharsight Corporation, Mountain View, CA, USA). Additional statistical analysis was performed with GraphPad Prism® Version 6.02 (GraphPad Software Inc, San Diego CA, USA).

[6] = system: P. falciparum Pf3D7 0087/N9; assay: GSK P. falciparum humanized mouse model (GSKPfalcHuMouse) efficacy; details: 4 days
Excerpt: The mice were infected with 2 × 10^7 P. falciparum Pf3D7^0087/N9-infected erythrocytes (Day 0) at ~ 40% chimerism in peripheral blood. […] AUCED90 is the average daily exposure of the compound in whole blood that reduces parasitemia at day 7 of the in vivo assay by 90% with respect to parasitemia in vehicle-treated mice.

[7] = system: P. falciparum gatekeeper mutant (T618Q) stage V gametocytes; assay: Gametogenesis (rounding up) assay, T618Q stage V gametocytes; type: cell-based, Plasmodium falciparum; details: 30 µM xanthurenic acid; 2 µM ML1, 1 µM ML10
in vivo [8] = details: BALB/c, mouse, po
Excerpt: Supplementary Figure 4. Plasma concentrations over time in rodent malaria models. […] Error bars show the standard deviation. (1 picture or pasted object on this page, not shown here)

physchem = details: pH 7.4
Protocol: as §3, §4

[9] = Cytotoxicity assay (ATP depletion), HT-29; type: cell-based; details: human, HT-29 colorectal adenocarcinoma cells, 0.001–10 µM, n = 6
Protocol: (§5) A549 (lung carcinoma; ATCC, Ref. ATCC® CCL-185™), plated at 7.5×10^3 cells/well; HT-29 (colorectal adenocarcinoma; ATCC, Ref. ATCC® HTB-38™), plated at 7.5×10^3 cells/well; and MCF7 (breast adenocarcinoma; ATCC, Ref. ATCC® HTB-22™), plated at 9× 10^3 cells/well, were placed into clear bottom, opaque 96 well plates in cell line-specific medium and allowed to attach overnight. […] FCS, 1× GlutaMAX™ Supplement (Life Technologies, 35050061) and 50 units/ml penicillin and 50 µg/ml streptomycin for 48 h. Six independent assays were performed for each line and were carried out by CXR Biosciences Ltd. End point for cytotoxicity assessment was carried out using an ATP depletion kit (CellTiter-Glo Luminescent Cell Viability Assay for ATP quantitation (Promega, Cat # G7572)). Results expressed relative to the 0.1% DMSO control. Unpaired Student’s t-tests were performed using GraphPad Prism software (7.0).

[10] = Cytotoxicity assay using HepG2 cells; details: human
Protocol: as §3, §4

[11] = Cytotoxicity assay (ATP depletion), A549; type: cell-based; details: human, A549 lung carcinoma cells, 0.001–10 µM, n = 6
Protocol: as §5

Question: What does the source list for `Cc1cn2c(-c3ccnc(NCC4CC4)n3)c(-c3ccc(F)c(NS(C)(=O)=O)c3)nc2cc1CN(C)C` [ML10]?
Answer: IC50 [1]: 0.0413 µM; inhibitory activity against panel of 80 human protein kinases [2]: only low levels of inhibitory activity; reduction in blood stage parasitaemia (P. chabaudi (AS); single daily oral dose 50 mg/kg just prior to schizogony): 60.9%; reduction in blood stage parasitaemia (mean) (P. chabaudi (AS); twice daily oral dose 50 mg/kg (3 h apart)): 97.8%; hlm (%rem) [3]: 61%; inhibition at 0.1 µM (human MLK3): 40%; lag before killing (effects reversible following wash-out) [4]: about 24 h; half-life (in vivo [5]; 50 mg/kg): 8.7 h; half-life (in vivo [5]; 100 mg/kg): 17 h; parasitaemia at the end of the treatment ([6]; 100 mg/kg twice daily oral): not detectable; effect on parasitaemia ([6]; 50 or 100 mg/kg twice daily oral): dramatically reduced parasitaemia; rounding up of T618Q gametocytes [7]: insensitive; half-life (in vivo [8]; 25 mg/kg): 0.8 h; concentration at 30 min (in vivo [8]; 50 mg/kg): 10.4 µM; concentration at 60 min (in vivo [8]; 50 mg/kg): ~8.4 µM; concentration at 4 h (in vivo [8]; 50 mg/kg): < 0.084 µM; half-life (in vivo [8]; 50 mg/kg): 1.1 h; logD (physchem): 2.8; EC50 at 48 h [9]: > 10 µM; IC50 [10]: > 20 µM; EC50 at 48 h [11]: > 10 µM
